Experimental findings from ChEMBL document CHEMBL1817609, “SAR studies of 4-pyridyl heterocyclic anilines that selectively induce autophagic cell death in von Hippel-Lindau-deficient renal cell carcinoma cells” (Bioorg Med Chem, 2011) are described below.

Calls of active or inactive are those of the source. The rule behind the calls is not given here.

Test [1] concerns RCC4. The experiment in a line: Induction of autophagy in human RCC4 cells assessed as formation of intracytoplasmic vacuoles at 5 uM after 24 hrs by phase contrast microscopy. The test is classed as functional, cell-based.
A short description of test [2]: Growth inhibition of human RCC4/VHL cells after 4 days by XTT assay. The class given is functional, cell-based. Conditions: 96 h. On the technique in general: Formazan colour is commonly taken as a measure of viable cells.
A short description of test [3]: Selectivity ratio IC50 for human RCC4/VHL cells to IC50 for human RCC4 cells. The class given is functional.
The nature of test [4]: Growth inhibition of human RCC4 cells after 4 days by XTT assay. The class given is functional, cell-based. Conditions: RCC4, 96 h.

With `Cc1cccc(Nc2nc(-c3ccncc3C#CCN3CCOCC3)cs2)c1`, the result in test [1] was Active. In addition, the IC50 was 2.3 µM in test [2], 0.57 µM in test [4] (read-out: IC50) and 0.575 µM in test [4] (read-out: pIC50 (converted)). The “Ratio IC50” value in test [3] came out at 4.
On the same counts, the results for `Cc1cccc(Nc2nc(-c3ccncc3)cs2)c1` are “Active”, 40 µM, 2.1 µM, 2.14 µM and 19.
For `Cc1cccc(Nc2nc(-c3ccncc3OCCCN(C)C)cs2)c1` the same measures were “Active”, 20.2 µM, 2.7 µM, 2.75 µM and 7.4.
In the case of `Cc1cccc(Nc2nc(-c3ccnc(OCCCN(C)C)c3)cs2)c1`, the IC50 was 8.8 µM in test [2], 6 µM in test [4] (read-out: IC50) and 6.03 µM in test [4] (read-out: pIC50 (converted)). The “Ratio IC50” value in test [3] is listed as 1.5.
With `Cc1cccc(Nc2nc(-c3ccncc3C#CCN3CCN(C)CC3)cs2)c1`, the IC50 in test [2] is 2.2 µM; in test [4] (read-out: IC50), 2.6 µM; in test [4] (read-out: pIC50 (converted)), 2.63 µM. Further, in test [3], the “Ratio IC50” value was 0.9.
On the same counts, the results for `Cc1cccc(Nc2nc(-c3ccncc3-c3ccc(S(C)(=O)=O)cc3)cs2)c1` are 13.4 µM, 1.6 µM, 1.62 µM and 8.4.
On the same counts, the results for `Cc1cccc(Nc2nc(-c3ccnc(-c4cncnc4)c3)cs2)c1` are 37 µM, 26.4 µM, 26.9 µM and 1.4.
On the same counts, the results for `Cc1cccc(Nc2cccc(-c3ccncc3)c2)c1` are 38.1 µM, 36.9 µM, 37.2 µM and 1.
As to `Cc1cccc(Nc2nc(-c3ccncc3N3CCN(C)CC3)cs2)c1`, the values for the IC50 in test [2], in test [4] (read-out: IC50) and in test [4] (read-out: pIC50 (converted)) were 6.6 µM, 2.6 µM and 2.63 µM, respectively. The “Ratio IC50” value in test [3] stood at 2.5.
Take `Cc1cccc(Nc2nc(-c3ccncc3OCCN3CCOCC3)cs2)c1`: the IC50 in test [2] was 0.88 µM; in test [4] (read-out: IC50) it was 0.32 µM; in test [4] (read-out: pIC50 (converted)) it was 0.324 µM. Besides, the “Ratio IC50” value in test [3] was determined as 2.8.
For `Cc1cccc(Nc2nc(-c3ccncc3-c3ccc(C(=O)NCCCN(C)C)cc3)cs2)c1` the same measures were 3.9 µM, 4 µM, 4.07 µM and 1.
For `Cc1cccc(Nc2nc(-c3ccncc3)ns2)c1` the same measures were over 40 µM, 24.8 µM, 25.1 µM and over 1.6.
In the case of `Cc1cccc(Nc2nc(-c3ccnc(-c4c(C)noc4C)c3)cs2)c1`, the results for the IC50 in test [2], in test [4] (read-out: IC50) and in test [4] (read-out: pIC50 (converted)) were 36.5 µM, 3 µM and 3.02 µM, respectively. Moreover, the “Ratio IC50” value in test [3] stood at 12.
As to `Cc1cccc(Nc2nc(-c3cnn4ccccc34)cs2)c1`, the IC50 was 15.3 µM in test [2], over 40 µM in test [4] (read-out: IC50) and 40.7 µM in test [4] (read-out: pIC50 (converted)). In addition, the “Ratio IC50” value in test [3] is reported as under 0.4.
For `Cc1cccc(Nc2nc(-c3ccnc(OCCN4CCOCC4)c3)cs2)c1`, the IC50 in test [2] was 21.1 µM; in test [4] (read-out: IC50), 7 µM; in test [4] (read-out: pIC50 (converted)) it was 7.08 µM. Further, the “Ratio IC50” value in test [3] is on record as 3.
Turning to `Cc1cccc(Nc2nc(-c3ccnc(-c4cc[nH]n4)c3)cs2)c1`, the result in test [1] was Active. Besides, the IC50 in test [2] is 20 µM; in test [4] (read-out: IC50), 0.48 µM; in test [4] (read-out: pIC50 (converted)), 0.49 µM.
Take `Cc1cccc(Nc2nc(-c3ccncc3-c3ccc(C(F)(F)F)cc3)cs2)c1`: the IC50 in test [2] was 22.6 µM; in test [4] (read-out: IC50), 12.8 µM; in test [4] (read-out: pIC50 (converted)), 12.9 µM. Moreover, the “Ratio IC50” value in test [3] is reported as 1.8.
On the same counts, the results for `Cc1cccc(Nc2nc(-c3ccncc3-c3ccccc3)cs2)c1` are 33.2 µM, 11.6 µM, 11.7 µM and 2.9.
For the molecule `Cc1cccc(Nc2nc(-c3ccnc(-c4cnn(Cc5ccccc5)c4)c3)cs2)c1`, the outcome in test [1] was Active. Also, the IC50 in test [2] is 66.1 µM; in test [4] (read-out: IC50) it was 2.2 µM; in test [4] (read-out: pIC50 (converted)), 2.24 µM. Moreover, the “Ratio IC50” value in test [3] was 30.
Turning to `c1ccc(Nc2nc(-c3ccncc3)cs2)cc1`, the IC50 in test [2] was over 70 µM; in test [4] (read-out: IC50), 7 µM; in test [4] (read-out: pIC50 (converted)) it was 7.08 µM. Further, the “Ratio IC50” value in test [3] is over 10.
`Cc1cccc(Nc2nc(-c3ccnc(-c4ccsc4)c3)cs2)c1`: the IC50 was over 40 µM in test [2], 8.7 µM in test [4] (read-out: IC50) and 8.71 µM in test [4] (read-out: pIC50 (converted)). Moreover, the “Ratio IC50” value in test [3] is reported as over 4.6.
On the same counts, the results for `Cc1cccc(Nc2cncc(-c3ccncc3)n2)c1` are 31.8 µM, 8.5 µM, 8.51 µM and 3.7.
On the same counts, the results for `Cc1cccc(Nc2cccc(-c3ccncc3)n2)c1` are over 40 µM, 7.4 µM, 7.41 µM and over 5.4.
Turning to `Cc1cccc(Nc2nc(-c3ccnc(-c4ccccc4)c3)cs2)c1`, the IC50 in test [2] is 40 µM; in test [4] (read-out: IC50) it was 19.1 µM; in test [4] (read-out: pIC50 (converted)) it was 19.5 µM. For the same molecule, the “Ratio IC50” value in test [3] is reported as 2.1.
On the same counts, the results for `Cc1cccc(Nc2nc(-c3ccnc(-c4cnn(C)c4)c3)cs2)c1` are 8.1 µM, 5.2 µM, 5.25 µM and 1.6.
Turning to `Cc1cccc(Nc2nc(-c3cc(-c4ccccc4)nc4ccccc34)cs2)c1`, the IC50 in test [2] is over 40 µM; in test [4] (read-out: IC50), 25.4 µM; in test [4] (read-out: pIC50 (converted)), 25.7 µM. The “Ratio IC50” value in test [3] is recorded as over 1.6.
